System: men with abdominal obesity, low to low-normal serum total testosterone levels and the metabolic syndrome
Assay: Placebo-controlled treatment study in abdominally obese men with low to low-normal testosterone and the metabolic syndrome
Conditions: for increasing insulin sensitivity, treatment group relative to placebo / lowering triglycerides, treatment group relative to placebo / reducing visceral adipose tissue, treatment group relative to placebo: end of treatment
Description: (§1) Approximately 200 men are recruited with abdominal obesity (waist circumference >102 cm), low to low-normal serum total testosterone levels (<450 ng/dL), and the metabolic syndrome per NCEP criteria. NCEP criteria for diagnosis of the metabolic syndrome in men includes 3 of the following 5 components: Fasting glucose≧110 mg/dL, TG≧150 mg/dL, low HDL-C (<40 mg/dL), high waist circumference (>102 cm), BP≧130/≧85 mmHg. Since the study design calls for inclusion of abdominally obese men with waist circumference >102 cm, patients have at least 2 of the other 4 criteria to satisfy the NCEP criteria for the metabolic syndrome. Patients are randomized to placebo or treatment. Fasting blood samples are taken.
Periodic measurements of insulin/glycemic response to oral glucose tolerance test (OGTT) and insulin sensitivity index, fasting plasma glucose (FPG), fasting lipid profile (includes triglycerides, total cholesterol, low-density lipoprotein cholesterol, non-high-density lipoprotein cholesterol, high-density lipoprotein cholesterol, and free fatty acids), visceral fat mass, and blood pressure are taken.
as §1, with “taken. After a placebo run in, the treatment group receives daily administration of 0.5 mg N-(2,5-bis-trifluoromethyl-phenyl)-3-oxo-4-aza-4-methyl-5α-androst-1-ene-17β-carboxamide (dutasteride).” for “taken.”
as §1, with “glucose ≧110” for “glucose≧110”, “taken. After a placebo run in, the treatment group receives daily administration of N-(2-trifluoromethyl-phenyl)-3-oxo-4-aza-4-methyl-5α-androst-1-ene-17β-carboxamide.” for “taken.”
as §1, with “(≦450” for “(<450”, “glucose ≧110” for “glucose≧110”

[1] = Example 6: daily administration (dose not given)

| SMILES | tolerability of the treatment (Example 7: 25 mg daily) | increasing insulin sensitivity, treatment group relative to placebo (Example 7: 25 mg daily) | lowering triglycerides, treatment group relative to placebo (Example 7: 25 mg daily) | reducing visceral adipose tissue, treatment group relative to placebo (Example 7: 25 mg daily) | tolerability of the treatment [1] | increasing insulin sensitivity, treatment group relative to placebo [1] | lowering triglycerides, treatment group relative to placebo [1] | reducing visceral adipose tissue, treatment group relative to placebo [1] |
| --- | --- | --- | --- | --- | --- | --- | --- | --- |
| Cc1ccc(O[C@H]2C[C@H]3[C@@H]4[C@@H](C)C[C@H]5NC(=O)C=C[C@]5(C)[C@H]4CC[C@]3(C)C2)cc1 [3-oxo-4-aza-7β-methyl-16β-(4-methylphenoxy)-5α-androst-1-ene] | well tolerated | significant improvement | significant improvement | significant improvement | – | – | – | – |
| CN1C(=O)C=C[C@]2(C)[C@H]3CC[C@]4(C)[C@@H](C(=O)Nc5ccccc5C(F)(F)F)CC[C@H]4[C@@H]3CC[C@@H]12 [N-(2-trifluoromethyl-phenyl)-3-oxo-4-aza-4-methyl-5α-androst-1-ene-17β-carboxamide] | – | – | – | – | well tolerated | significant improvement | significant improvement | significant improvement |

Reference: US20110015164A1, “METHOD OF TREATING MEN WITH METABOLIC AND ANTH[…]” (priority 2004, published 2011)
